Publication PMC7036132, “Effects of the Salt-Processing Method on the Pharmacokinetics and Tissue Distribution of Orally Administered Morinda officinalis How. Extract” (Journal of Analytical Methods in Chemistry, 2020)
Where “and” joins values, the source holds several entries; their conditions need not be identical. Equal values may be shown once.

What was measured:
[1] = Pharmacokinetics in rat plasma after oral administration of MO and SMO extract (UPLC-MS/MS); format: in vivo, Sprague-Dawley (SD) rats; conditions: for Cmax: rat, plasma, po, 40 g/kg; for Cmax / AUC (0-t) / AUC (0-∞) / CL/F / MRT (0-t) / T max / V/F / t1/2z: n = 6
Method: (§1) For LC-MS/MS analysis, data acquisition and instrument control were performed using MassLynx 4.1 software (Waters Corp., Milford, MA, USA). The analysis column was an Acquity UPLC HSS T3 column (100 mm × 2.1 mm, 1.8 μm, Waters) with a temperature of 40°C. The mobile phase was acetonitrile containing 0.1% formic acid (A) and 0.1% formic acid aqueous solution (B). The elution gradient was 0.00–0.50 min with 2% B; 0.51–5.00 min with 2%–30% B; and 5.01–7.00 min with 40% B. The flow rate was 0.2 mL/min.
(§2) The Waters triple quadruple mass spectrometer (Xevo TQD, Waters Corp., Milford, MA, USA) equipped with an electrospray ionization source (ESI) was used in negative ion mode. The desolvation gas was nitrogen with a flow rate of 500 L/h at a temperature of 250°C. All detected compounds were measured in multiple reaction monitoring (MRM) mode.
10 μL of IS working solution and 400 μL of methanol were added to 100 μL plasma. The solution was vortexed for 10 min and then centrifuged at 12,000 rpm for 5 min. The supernatant was shifted to another centrifugation tube and dried with nitrogen at 37°C. The residue was redissolved in 100 μL acetonitrile and centrifuged for 5 min at 12,000 rpm. Five microliters of supernatant was drawn and analyzed by UPLC-MS/MS.
The SD rats (6, male) were housed at 22 ± 2°C and fasted for 12 h with drinking water available ad libitum. MO and SMO ethanol extract were orally administered at a dose of 40 g/kg (equivalent to 6.44 and 3.95 mg/kg of monotropein, 0.088 and 0.091 mg/kg of rubiadin, and 0.174 and 0.178 mg/kg of rubiadin 1-methyl ether). Blood samples (0.5 mL) were collected from the venous plexus of the eye socket at 0.083, 0.25, 0.5, 1.0, 1.5, 2.0, 2.5, 4.0, 6.0, 12.0, and 24 h under anesthesia. Then, the blood samples were centrifuged at 4500 rpm for 10 min, and then the plasma was immediately transferred to new tubes and stored at −80°C until analysis. The pharmacokinetic parameters were calculated using DAS software (3.0 version, China Food and Drug Administration) based on noncompartmental method. All data were recorded as mean ± SD.

[2] = Tissue distribution after oral administration of MO and SMO extract; format: in vivo, SD rats; conditions: rat; 0.25, 1, 3 and 6 h after oral MO or SMO extract 40 g/kg
Method: as §1, §2
The whole tissue was cut into pieces and homogenized with ice-cold 0.9% (m/v) sodium chloride solution (1 : 9, w/v). Using 50 μL of tissue homogenate, the tissue samples were prepared in the same way as the plasma samples.
MO and SMO ethanol extract (40 g/kg) was orally administered to SD rats (weight, 180–220 g, n = 6), at 0.25, 1, 3, and 6 h, respectively. […]

[3] = Stability of the three components in rat plasma and tissues (QC samples); conditions: n = 5
Method: The preparation of calibration standards was done as follows: The appropriate working solution was spiked into blank plasma or tissues to obtain concentrations of 75∼0.047 μg/mL for monotropein, 396∼1.54 μg/mL for rubiadin, and 596∼1.16 μg/mL for rubiadin 1-methyl ether. The QC concentrations for monotropein were 0.14 μg/mL, 2 μg/mL, and 28.1 μg/mL; for rubiadin, they were 1.6 μg/mL, 50.6 μg/mL, and 712.5 μg/mL; and for rubiadin 1-methyl ether, they were 3.9 μg/mL, 54.6 μg/mL, and 765 μg/mL. The QC samples used for the recovery, matrix effect, intra- and interday accuracy, precision, and stability studies were prepared in the same way as that of the calibration standards. The solutions were stored for one week at −20°C.
The QC samples used for the recovery QC samples were used to judge the stability, and the storage conditions were as follows: (1) freeze-thaw stability, (2) at room temperature for 4 h, and (3) put into the autosampler for 8 h, and (4) at −20°C for 30 days. The permitted range was within 15%.

[4] = male, Sprague-Dawley, oral MO extract 40 g/kg
[5] = male, Sprague-Dawley, oral SMO extract 40 g/kg
[6] = rat kidney, high Conc (rubiadin 4.63, rubiadin 1-methyl ether 3.49, monotropein 28.13 μg/mL)
[7] = rat kidney, low Conc (rubiadin 0.21, rubiadin 1-methyl ether 0.15, monotropein 1.41 μg/mL)
[8] = rat kidney, middle Conc (rubiadin 0.98, rubiadin 1-methyl ether 0.72, monotropein 6.2 μg/mL)
[9] = rat liver, high Conc (rubiadin 4.63, rubiadin 1-methyl ether 3.49, monotropein 28.13 μg/mL)
[10] = rat liver, low Conc (rubiadin 0.21, rubiadin 1-methyl ether 0.15, monotropein 1.41 μg/mL)
[11] = rat liver, middle Conc (rubiadin 0.98, rubiadin 1-methyl ether 0.72, monotropein 6.2 μg/mL)
[12] = rat lung, high Conc (rubiadin 4.63, rubiadin 1-methyl ether 3.49 μg/mL)
[13] = rat lung, low Conc (rubiadin 0.21, rubiadin 1-methyl ether 0.15 μg/mL)
[14] = rat lung, middle Conc (rubiadin 0.98, rubiadin 1-methyl ether 0.72 μg/mL)
[15] = rat plasma, high Conc (rubiadin 712.5, rubiadin 1-methyl ether 765, monotropein 28.1 μg/mL)
[16] = rat plasma, low Conc (rubiadin 3.6, rubiadin 1-methyl ether 3.9, monotropein 0.14 μg/mL)
[17] = rat plasma, middle Conc (rubiadin 50.6, rubiadin 1-methyl ether 54.6, monotropein 2 μg/mL)
[18] = rat small intestine, high Conc (rubiadin 4.63, rubiadin 1-methyl ether 3.49, monotropein 28.13 μg/mL)
[19] = rat small intestine, low Conc (rubiadin 0.21, rubiadin 1-methyl ether 0.15, monotropein 1.41 μg/mL)
[20] = rat small intestine, middle Conc (rubiadin 0.98, rubiadin 1-methyl ether 0.72, monotropein 6.2 μg/mL)

O=C(O)C1=CO[C@@H](O[C@@H]2O[C@H](CO)[C@@H](O)[C@H](O)[C@H]2O)[C@H]2[C@@H]1C=C[C@]2(O)CO [Monotropein, monotropein]
Cmax [1, 4]: 23.3 ± 0.764 ng/mL
Cmax [1, 5]: 23.3 ± 0.676 ng/mL
Shape of plasma concentration-time curve ([1]; oral MO and SMO extract 40 g/kg): obvious double-peak phenomenon
AUC (0-t) ([1]; oral MO extract 40 g/kg): 44.22 ± 0.932 μg/L ∗ h
AUC (0-∞) ([1]; oral MO extract 40 g/kg): 48.952 ± 1.559 μg/L ∗ h
CL/F ([1]; oral MO extract 40 g/kg): 0.818 ± 0.265 L/g/h
MRT (0-t) ([1]; oral MO extract 40 g/kg): 3.863 ± 0.184 H
T max ([1]; oral MO extract 40 g/kg): 1.0 H and 1.0 ± 0.00 H
V/F ([1]; oral MO extract 40 g/kg): 14.447 ± 2.143 L/g
t1/2z ([1]; oral MO extract 40 g/kg): 12.291 ± 2.09 H
AUC (0-t) ([1]; oral SMO extract 40 g/kg): 26.941 ± 1.423 μg/L ∗ h
AUC (0-∞) ([1]; oral SMO extract 40 g/kg): 27.045 ± 1.338 μg/L ∗ h
CL/F ([1]; oral SMO extract 40 g/kg): 1.482 ± 0.750 L/g/h
MRT (0-t) ([1]; oral SMO extract 40 g/kg): 1.686 ± 0.025 H
T max ([1]; oral SMO extract 40 g/kg): 0.5 H and 0.5 ± 0.00 H
V/F ([1]; oral SMO extract 40 g/kg): 12.239 ± 9.027 L/g
t1/2z ([1]; oral SMO extract 40 g/kg): 5.611 ± 3.958 H
Concentration in lung tissue [2]: could not be quantified

COc1c(C)c(O)cc2c1C(=O)c1ccccc1C2=O [Rubiadin 1-methyl ether, rubiadin 1-methyl ether]
Cmax compared among the three components ([1]; especially in the SMO groups): the highest
Cmax [1, 4]: 432 ± 37 ng/mL
Cmax [1, 5]: 509 ± 35.1 ng/mL
AUC (0-t) ([1]; oral MO extract 40 g/kg): 1059.49 ± 98.081 μg/L ∗ h
AUC (0-∞) ([1]; oral MO extract 40 g/kg): 1074.351 ± 102.019 μg/L ∗ h
CL/F ([1]; oral MO extract 40 g/kg): 0.037 ± 0.372 L/g/h
MRT (0-t) ([1]; oral MO extract 40 g/kg): 2.908 ± 0.151 H
T max ([1]; oral MO extract 40 g/kg): 0.5 ± 0.00 H
V/F ([1]; oral MO extract 40 g/kg): 0.287 ± 0.067 L/g
t1/2z ([1]; oral MO extract 40 g/kg): 5.379 ± 1.514 H
AUC (0-t) ([1]; oral SMO extract 40 g/kg): 1244.329 ± 82.805 μg/L ∗ h
AUC (0-∞) ([1]; oral SMO extract 40 g/kg): 1253.526 ± 84.691 μg/L ∗ h
CL/F ([1]; oral SMO extract 40 g/kg): 0.032 ± 0.210 L/g/h
MRT (0-t) ([1]; oral SMO extract 40 g/kg): 2.855 ± 0.15 H
T max ([1]; oral SMO extract 40 g/kg): 0.5 ± 0.00 H
V/F ([1]; oral SMO extract 40 g/kg): 0.196 ± 0.363 L/g
t1/2z ([1]; oral SMO extract 40 g/kg): 4.27 ± 0.865 H
Cmax and AUC0-t, SMO groups compared with the MO group ([1]; oral extract 40 g/kg): elevated remarkably
Stability RE%, At 25°C for 12 h [3, 6]: −3.58%
Stability RE%, Autosampler at 4°C for 24 h [3, 6]: −0.36%
Stability RE%, Freeze–thaw cycles [3, 6]: −1.57%
Stability RE%, −20°C for 30 days [3, 6]: 0.54%
Stability RE%, At 25°C for 12 h [3, 7]: 0.35%
Stability RE%, Autosampler at 4°C for 24 h [3, 7]: −0.36%
Stability RE%, Freeze–thaw cycles [3, 7]: 0.15%
Stability RE%, −20°C for 30 days [3, 7]: −5.1%
Stability RE%, At 25°C for 12 h [3, 8]: 0.24%
Stability RE%, Autosampler at 4°C for 24 h [3, 8]: −0.68%
Stability RE%, Freeze–thaw cycles [3, 8]: −0.54%
Stability RE%, −20°C for 30 days [3, 8]: −2.49%
Stability RE%, At 25°C for 12 h [3, 9]: 0.42%
Stability RE%, Autosampler at 4°C for 24 h [3, 9]: −0.66%
Stability RE%, Freeze–thaw cycles [3, 9]: −0.68%
Stability RE%, −20°C for 30 days [3, 9]: −2.58%
Stability RE%, At 25°C for 12 h [3, 10]: −2.1%
Stability RE%, Autosampler at 4°C for 24 h [3, 10]: 0.54%
Stability RE%, Freeze–thaw cycles [3, 10]: −1.52%
Stability RE%, −20°C for 30 days [3, 10]: −0.58%
Stability RE%, At 25°C for 12 h [3, 11]: −3.42%
Stability RE%, Autosampler at 4°C for 24 h [3, 11]: −3.81%
Stability RE%, Freeze–thaw cycles [3, 11]: −5.42%
Stability RE%, −20°C for 30 days [3, 11]: −0.45%
Stability RE%, At 25°C for 12 h [3, 12]: −0.06%
Stability RE%, Autosampler at 4°C for 24 h [3, 12]: −2.42%
Stability RE%, Freeze–thaw cycles [3, 12]: −0.53%
Stability RE%, −20°C for 30 days [3, 12]: 0.05%
Stability RE%, At 25°C for 12 h [3, 13]: −0.57%
Stability RE%, Autosampler at 4°C for 24 h [3, 13]: −8.51%
Stability RE%, Freeze–thaw cycles [3, 13]: −2.57%
Stability RE%, −20°C for 30 days [3, 13]: −1.54%
Stability RE%, At 25°C for 12 h [3, 14]: −5.71%
Stability RE%, Autosampler at 4°C for 24 h [3, 14]: −0.65%
Stability RE%, Freeze–thaw cycles [3, 14]: −4.85%
Stability RE%, −20°C for 30 days [3, 14]: −0.55%
Stability RE%, At 25°C for 12 h [3, 15]: −5.1%
Stability RE%, Autosampler at 4°C for 24 h [3, 15]: −3.14%
Stability RE%, Freeze–thaw cycles [3, 15]: −3.71%
Stability RE%, −20°C for 30 days [3, 15]: −0.86%
Stability RE%, At 25°C for 12 h [3, 16]: −1.79%
Stability RE%, Autosampler at 4°C for 24 h [3, 16]: −1.49%
Stability RE%, Freeze–thaw cycles [3, 16]: −0.94%
Stability RE%, −20°C for 30 days [3, 16]: −3.26%
Stability RE%, At 25°C for 12 h [3, 17]: −4.21%
Stability RE%, Autosampler at 4°C for 24 h [3, 17]: −1.65%
Stability RE%, Freeze–thaw cycles [3, 17]: −1.35%
Stability RE%, −20°C for 30 days [3, 17]: −0.23%
Stability RE%, At 25°C for 12 h [3, 18]: 0.25%
Stability RE%, Autosampler at 4°C for 24 h [3, 18]: 0.48%
Stability RE%, Freeze–thaw cycles [3, 18]: −0.74%
Stability RE%, −20°C for 30 days [3, 18]: 1.35%
Stability RE%, At 25°C for 12 h [3, 19]: −0.69%
Stability RE%, Autosampler at 4°C for 24 h [3, 19]: −0.42%
Stability RE%, Freeze–thaw cycles [3, 19]: −6.57%
Stability RE%, −20°C for 30 days [3, 19]: −1.25%
Stability RE%, At 25°C for 12 h [3, 20]: −0.85%
Stability RE%, Autosampler at 4°C for 24 h [3, 20]: −0.62%
Stability RE%, Freeze–thaw cycles [3, 20]: −0.57%
Stability RE%, −20°C for 30 days [3, 20]: −0.25%

Cc1c(O)cc2c(c1O)C(=O)c1ccccc1C2=O [Rubiadin, rubiadin]
Tmax ([1]; male, Sprague-Dawley, oral extract 40 g/kg, MO or SMO group not specified): 1.5 h
Cmax [1, 4]: 46.7 ± 12.9 ng/mL
Cmax [1, 5]: 50.2 ± 8.9 ng/mL
AUC (0-t) ([1]; oral MO extract 40 g/kg): 152.252 ± 7.098 μg/L ∗ h
AUC (0-∞) ([1]; oral MO extract 40 g/kg): 153.816 ± 7.169 μg/L ∗ h
CL/F ([1]; oral MO extract 40 g/kg): 0.261 ± 0.012 L/g/h
MRT (0-t) ([1]; oral MO extract 40 g/kg): 6.062 ± 0.272 H
T max ([1]; oral MO extract 40 g/kg): 1.5 ± 0.00 H
V/F ([1]; oral MO extract 40 g/kg): 1.442 ± 0.090 L/g
t1/2z ([1]; oral MO extract 40 g/kg): 3.838 ± 0.196 H
AUC (0-t) ([1]; oral SMO extract 40 g/kg): 169.355 ± 8.836 μg/L ∗ h
AUC (0-∞) ([1]; oral SMO extract 40 g/kg): 176.441 ± 18.283 μg/L ∗ h
CL/F ([1]; oral SMO extract 40 g/kg): 0.228 ± 0.022 L/g/h
MRT (0-t) ([1]; oral SMO extract 40 g/kg): 5.89 ± 0.265 H
T max ([1]; oral SMO extract 40 g/kg): 1.5 ± 0.00 H
V/F ([1]; oral SMO extract 40 g/kg): 1.579 ± 0.842 L/g
t1/2z ([1]; oral SMO extract 40 g/kg): 5.006 ± 3.383 H
Cmax and AUC0-t, SMO groups compared with the MO group ([1]; oral extract 40 g/kg): elevated remarkably
